These are literature values, as cited in patent publication US8957083B2, “Spiro-amino-imidazolone and spiro-amino-dihydro-pyrimidinone compounds as beta-secretase modulators and methods of use” (Amgen Inc., priority 2010, dated 2015).

The test system of data set [1] is Aβ in lumbar CSF. As to conditions: cited from earlier work.
For data set [2], the system named is pigment epithelium of the rat's eye. As to conditions: higher compound dose given for three months; cited from earlier work.
Data set [3] concerns Aβ. To be noted: orally available; cited from earlier work.

For the molecule `C[C@@]1(c2cc(-c3cncnc3)c(F)cc2F)CCSC(N)=N1` [LY2811376, (S)-4-(2,4-difluoro-5-pyrimidin-5-yl-phenyl)-4-methyl-5,6-dihydro-4H-[1,3]thiazin-2-ylamine], the “Aβ reductions in lumbar CSF” value in data set [1] (after oral dosing of 30 or 90 mg) is “Prominent and long-lasting Aβ reductions”. Further, the safety and tolerability entry in data set [1] (healthy volunteers) was “safe and well tolerated”. Moreover, in data set [2], the retinal toxicity finding result is listed as “ravaged the pigment epithelium of the rat's eye”. Besides, in data set [3], the “Aβ-lowering effects in animals” value is given as “profound Aβ-lowering effects”.
